Laboratory results published in ChEMBL document CHEMBL4800727 (2021).

What was measured:
[1] = molecular target: Adenosine receptor A2a (Homo sapiens) (UniProt P29274); assay: hA2A Cerep panel; conditions: Compound concentration 10.0 uM
[2] = molecular target: Dual 3',5'-cyclic-AMP and -GMP phosphodiesterase 11A (Homo sapiens, UniProt Q9HCR9); assay: hPDE11A4 PDE scan
[3] = molecular target: 5-hydroxytryptamine receptor 1B (Rattus norvegicus) (UniProt P28564); assay: r5HT1B Cerep panel; conditions: Compound concentration 10.0 uM
[4] = molecular target: Misshapen-like kinase 1 (Homo sapiens) (UniProt Q8N4C8); assay: misshapen-like kinase 1 Millipore kinase panel; conditions: Compound concentration 10.0 uM
Chain of Misshapen-like kinase 1 (Homo sapiens) (Q8N4C8 whole entry, looked up): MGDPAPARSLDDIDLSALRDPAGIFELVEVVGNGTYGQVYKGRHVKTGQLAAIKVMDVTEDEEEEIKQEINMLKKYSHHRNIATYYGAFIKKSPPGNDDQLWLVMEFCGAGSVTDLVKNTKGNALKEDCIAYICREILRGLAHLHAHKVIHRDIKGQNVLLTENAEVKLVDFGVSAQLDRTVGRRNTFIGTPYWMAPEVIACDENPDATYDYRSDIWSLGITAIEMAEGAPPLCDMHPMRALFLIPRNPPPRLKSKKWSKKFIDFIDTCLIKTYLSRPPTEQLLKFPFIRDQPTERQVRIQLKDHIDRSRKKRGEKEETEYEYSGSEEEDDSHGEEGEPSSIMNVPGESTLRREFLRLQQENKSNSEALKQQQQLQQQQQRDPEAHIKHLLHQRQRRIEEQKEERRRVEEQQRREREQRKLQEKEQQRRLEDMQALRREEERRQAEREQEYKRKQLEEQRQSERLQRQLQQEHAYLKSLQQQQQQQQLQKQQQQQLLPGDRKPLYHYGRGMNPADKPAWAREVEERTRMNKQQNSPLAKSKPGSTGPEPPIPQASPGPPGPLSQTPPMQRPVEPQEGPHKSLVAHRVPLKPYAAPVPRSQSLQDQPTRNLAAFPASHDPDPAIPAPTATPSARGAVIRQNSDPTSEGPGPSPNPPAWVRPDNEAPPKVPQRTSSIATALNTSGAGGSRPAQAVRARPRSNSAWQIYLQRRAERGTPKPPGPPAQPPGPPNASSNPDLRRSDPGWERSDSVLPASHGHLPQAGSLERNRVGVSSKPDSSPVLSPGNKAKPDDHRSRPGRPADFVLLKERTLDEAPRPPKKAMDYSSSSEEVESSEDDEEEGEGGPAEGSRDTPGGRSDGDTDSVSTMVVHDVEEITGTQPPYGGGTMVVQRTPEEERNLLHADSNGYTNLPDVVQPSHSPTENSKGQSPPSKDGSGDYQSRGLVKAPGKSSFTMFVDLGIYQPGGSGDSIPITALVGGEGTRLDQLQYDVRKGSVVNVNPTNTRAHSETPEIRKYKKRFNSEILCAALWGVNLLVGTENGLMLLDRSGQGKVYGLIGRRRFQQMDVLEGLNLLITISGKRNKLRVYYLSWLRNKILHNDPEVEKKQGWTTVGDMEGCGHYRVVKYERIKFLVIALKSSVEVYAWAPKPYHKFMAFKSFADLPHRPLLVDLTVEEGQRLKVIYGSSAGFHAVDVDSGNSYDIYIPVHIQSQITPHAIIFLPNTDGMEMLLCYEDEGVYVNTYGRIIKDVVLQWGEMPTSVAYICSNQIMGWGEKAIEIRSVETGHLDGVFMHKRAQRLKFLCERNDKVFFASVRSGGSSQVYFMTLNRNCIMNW

[5] = molecular target: Prostaglandin E2 receptor EP4 subtype (Homo sapiens) (UniProt P35408); assay: hEP4 Cerep panel; conditions: Compound concentration 10.0 uM
[6] = molecular target: Serine/threonine-protein kinase MARK2 (Homo sapiens) (UniProt Q7KZI7); assay: MAP/microtubule affinity-regulating kinase 2 Millipore kinase panel; conditions: Compound concentration 10.0 uM
[7] = molecular target: Serine/threonine-protein kinase Nek6 (Homo sapiens) (UniProt Q9HC98); assay: NIMA -related kinase 6 Millipore kinase panel; conditions: Compound concentration 10.0 uM
Chain of Serine/threonine-protein kinase Nek6 (Homo sapiens) (Q9HC98 whole entry): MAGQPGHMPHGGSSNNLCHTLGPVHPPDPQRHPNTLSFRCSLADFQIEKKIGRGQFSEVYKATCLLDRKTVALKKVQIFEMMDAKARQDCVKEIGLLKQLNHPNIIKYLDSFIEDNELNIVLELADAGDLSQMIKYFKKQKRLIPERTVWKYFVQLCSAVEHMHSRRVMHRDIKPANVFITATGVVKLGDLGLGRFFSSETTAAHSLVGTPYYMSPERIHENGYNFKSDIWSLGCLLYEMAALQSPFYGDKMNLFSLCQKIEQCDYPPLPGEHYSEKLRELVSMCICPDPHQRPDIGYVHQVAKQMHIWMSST

[8] = molecular target: Muscarinic acetylcholine receptor M5 (Homo sapiens) (UniProt P08912); assay: hM5 Cerep panel; conditions: Compound concentration 10.0 uM
[9] = molecular target: Focal adhesion kinase 1 (Homo sapiens) (UniProt Q05397); assay: PTK2 protein tyrosine kinase 2 Millipore kinase panel; conditions: Compound concentration 10.0 uM
[10] = molecular target: Prostaglandin E2 receptor EP2 subtype (Homo sapiens) (UniProt P43116); assay: hEP2 Cerep panel; conditions: Compound concentration 10.0 uM
[11] = molecular target: Testis-specific serine/threonine-protein kinase 2 (Homo sapiens) (UniProt Q96PF2); assay: testis-specific serine kinase 2 Millipore kinase panel; conditions: Compound concentration 10.0 uM
[12] = molecular target: Serine/threonine-protein kinase VRK2 (Homo sapiens) (UniProt Q86Y07); assay: vaccinia related kinase 2 Millipore kinase panel; conditions: Compound concentration 10.0 uM
[13] = molecular target: Macrophage-stimulating protein receptor (Homo sapiens) (UniProt Q04912); assay: macrophage stimulating 1 receptor Millipore kinase panel; conditions: Compound concentration 10.0 uM
[14] = molecular target: Serine/threonine-protein kinase PAK 6 (Homo sapiens) (UniProt Q9NQU5); assay: p21 protein -activated kinase 6 Millipore kinase panel; conditions: Compound concentration 10.0 uM
Chain of Serine/threonine-protein kinase PAK 6 (Homo sapiens) (Q9NQU5 whole entry, looked up): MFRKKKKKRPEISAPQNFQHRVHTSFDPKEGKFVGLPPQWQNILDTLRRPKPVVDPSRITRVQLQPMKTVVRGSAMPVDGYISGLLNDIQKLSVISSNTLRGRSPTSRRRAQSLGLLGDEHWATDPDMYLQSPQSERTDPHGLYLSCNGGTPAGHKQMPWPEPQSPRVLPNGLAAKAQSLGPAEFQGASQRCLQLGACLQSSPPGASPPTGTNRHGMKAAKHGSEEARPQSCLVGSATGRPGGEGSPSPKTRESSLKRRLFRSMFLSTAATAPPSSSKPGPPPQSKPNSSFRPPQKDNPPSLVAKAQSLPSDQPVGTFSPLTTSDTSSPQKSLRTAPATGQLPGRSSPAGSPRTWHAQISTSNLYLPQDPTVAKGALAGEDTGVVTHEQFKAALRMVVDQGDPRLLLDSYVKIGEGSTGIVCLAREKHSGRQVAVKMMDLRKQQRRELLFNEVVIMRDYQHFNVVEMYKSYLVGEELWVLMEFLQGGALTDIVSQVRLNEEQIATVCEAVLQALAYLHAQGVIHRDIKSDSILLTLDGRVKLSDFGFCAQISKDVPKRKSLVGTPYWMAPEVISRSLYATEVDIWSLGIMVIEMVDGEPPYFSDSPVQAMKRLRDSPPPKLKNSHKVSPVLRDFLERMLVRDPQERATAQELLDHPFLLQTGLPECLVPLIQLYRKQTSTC

[15] = molecular target: Mitogen-activated protein kinase 9 (Homo sapiens) (UniProt P45984); assay: mitogen-activated protein kinase 9 Millipore kinase panel; conditions: Compound concentration 10.0 uM
Chain of Mitogen-activated protein kinase 9 (Homo sapiens) (P45984 whole entry, looked up): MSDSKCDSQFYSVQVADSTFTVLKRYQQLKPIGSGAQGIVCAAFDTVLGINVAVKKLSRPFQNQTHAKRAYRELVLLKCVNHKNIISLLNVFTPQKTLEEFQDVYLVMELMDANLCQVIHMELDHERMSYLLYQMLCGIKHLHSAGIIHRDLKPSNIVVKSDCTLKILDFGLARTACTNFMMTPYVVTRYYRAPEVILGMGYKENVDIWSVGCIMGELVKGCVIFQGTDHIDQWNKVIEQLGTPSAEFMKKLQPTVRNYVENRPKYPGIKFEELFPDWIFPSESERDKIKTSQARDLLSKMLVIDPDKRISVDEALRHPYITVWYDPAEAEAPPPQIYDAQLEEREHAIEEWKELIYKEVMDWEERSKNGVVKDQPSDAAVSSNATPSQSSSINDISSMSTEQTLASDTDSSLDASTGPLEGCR

[16] = molecular target: MAP kinase-activated protein kinase 5 (Homo sapiens) (UniProt Q8IW41); assay: mitogen-activated protein kinase-activated protein kinase 5 Millipore kinase panel; conditions: Compound concentration 10.0 uM
Chain of MAP kinase-activated protein kinase 5 (Homo sapiens) (Q8IW41 whole entry): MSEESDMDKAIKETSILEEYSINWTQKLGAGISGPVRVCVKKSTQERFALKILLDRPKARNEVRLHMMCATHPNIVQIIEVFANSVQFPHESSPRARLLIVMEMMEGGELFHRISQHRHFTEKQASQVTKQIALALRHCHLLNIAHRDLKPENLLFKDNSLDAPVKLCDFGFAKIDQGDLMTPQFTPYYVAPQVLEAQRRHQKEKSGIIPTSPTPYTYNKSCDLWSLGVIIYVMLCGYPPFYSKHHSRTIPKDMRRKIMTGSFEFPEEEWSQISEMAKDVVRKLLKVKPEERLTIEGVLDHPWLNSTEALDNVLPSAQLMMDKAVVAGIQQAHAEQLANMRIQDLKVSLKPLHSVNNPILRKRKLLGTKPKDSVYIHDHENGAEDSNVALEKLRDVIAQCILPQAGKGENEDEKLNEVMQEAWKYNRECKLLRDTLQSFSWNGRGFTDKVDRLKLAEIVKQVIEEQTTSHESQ

[17] = molecular target: Tyrosine-protein kinase Lyn (Homo sapiens) (UniProt P07948); assay: v-yes-1 Yamaguchi sarcoma viral related oncogene homolog Millipore kinase panel; conditions: Compound concentration 10.0 uM
[18] = molecular target: Ephrin type-A receptor 1 (Homo sapiens) (UniProt P21709); assay: EPH receptor A1 Millipore kinase panel; conditions: Compound concentration 10.0 uM
[19] = molecular target: Prostaglandin G/H synthase 1 (Homo sapiens) (UniProt P23219); assay: hCOX1 Cerep panel; conditions: Compound concentration 10.0 uM
[20] = molecular target: Ribosomal protein S6 kinase alpha-5 (Homo sapiens) (UniProt O75582); assay: ribosomal protein S6 kinase, 90kDa, polypeptide 5 Millipore kinase panel; conditions: Compound concentration 10.0 uM
[21] = molecular target: PAS domain-containing serine/threonine-protein kinase (Homo sapiens) (UniProt Q96RG2); assay: PAS domain containing serine/threonine kinase Millipore kinase panel; conditions: Compound concentration 10.0 uM
[22] = molecular target: Tyrosine-protein kinase HCK (Homo sapiens) (UniProt P08631); assay: hemopoietic cell kinase (activated) Millipore kinase panel; conditions: Compound concentration 10.0 uM
[23] = molecular target: Ephrin type-A receptor 5 (Homo sapiens) (UniProt P54756); assay: EPH receptor A5 Millipore kinase panel; conditions: Compound concentration 10.0 uM
[24] = molecular target: Insulin receptor (Homo sapiens) (UniProt P06213); assay: insulin receptor (activated) Millipore kinase panel; conditions: Compound concentration 10.0 uM
Chain of Insulin receptor (Homo sapiens) (P06213 28-758 limits assumed): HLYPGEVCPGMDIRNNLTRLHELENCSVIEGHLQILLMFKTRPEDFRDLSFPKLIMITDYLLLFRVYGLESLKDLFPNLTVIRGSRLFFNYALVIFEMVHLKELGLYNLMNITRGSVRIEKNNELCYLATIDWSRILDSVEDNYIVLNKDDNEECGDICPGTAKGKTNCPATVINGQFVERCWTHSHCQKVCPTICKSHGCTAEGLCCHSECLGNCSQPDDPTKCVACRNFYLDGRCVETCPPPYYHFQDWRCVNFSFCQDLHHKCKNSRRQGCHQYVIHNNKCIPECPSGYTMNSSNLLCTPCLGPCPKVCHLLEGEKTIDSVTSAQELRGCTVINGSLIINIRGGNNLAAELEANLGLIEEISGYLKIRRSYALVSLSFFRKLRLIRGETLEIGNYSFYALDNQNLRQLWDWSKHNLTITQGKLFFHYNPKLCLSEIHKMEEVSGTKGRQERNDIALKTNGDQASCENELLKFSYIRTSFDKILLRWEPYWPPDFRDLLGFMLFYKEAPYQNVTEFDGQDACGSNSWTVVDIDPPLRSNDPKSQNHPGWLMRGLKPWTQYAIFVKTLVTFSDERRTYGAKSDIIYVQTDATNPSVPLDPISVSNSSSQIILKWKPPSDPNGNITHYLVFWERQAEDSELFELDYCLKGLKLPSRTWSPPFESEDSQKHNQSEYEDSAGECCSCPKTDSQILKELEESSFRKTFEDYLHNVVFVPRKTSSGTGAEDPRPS
Chain of Insulin receptor (Homo sapiens) (P06213 763-1382 limits assumed): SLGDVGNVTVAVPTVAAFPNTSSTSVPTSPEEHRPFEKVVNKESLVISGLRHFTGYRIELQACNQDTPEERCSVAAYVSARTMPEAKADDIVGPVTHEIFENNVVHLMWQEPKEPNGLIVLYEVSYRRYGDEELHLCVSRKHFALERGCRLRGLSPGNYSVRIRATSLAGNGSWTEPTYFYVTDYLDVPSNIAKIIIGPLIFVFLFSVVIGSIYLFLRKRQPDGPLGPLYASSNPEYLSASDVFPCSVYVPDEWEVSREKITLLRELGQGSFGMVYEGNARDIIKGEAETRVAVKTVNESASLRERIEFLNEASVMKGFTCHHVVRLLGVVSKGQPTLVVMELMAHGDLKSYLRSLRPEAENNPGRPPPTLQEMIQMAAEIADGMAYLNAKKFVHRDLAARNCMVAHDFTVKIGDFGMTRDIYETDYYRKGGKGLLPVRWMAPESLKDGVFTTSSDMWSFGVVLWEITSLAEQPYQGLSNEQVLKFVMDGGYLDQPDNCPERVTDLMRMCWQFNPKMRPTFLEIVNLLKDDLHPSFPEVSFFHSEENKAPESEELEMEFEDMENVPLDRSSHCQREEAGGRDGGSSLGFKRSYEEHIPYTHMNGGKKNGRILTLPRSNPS

[25] = molecular target: Serine/threonine-protein kinase D2 (Homo sapiens) (UniProt Q9BZL6); assay: protein kinase D2 Millipore kinase panel; conditions: Compound concentration 10.0 uM
[26] = molecular target: cGMP-inhibited 3',5'-cyclic phosphodiesterase 3A (Homo sapiens, UniProt Q14432); assay: hPDE3A Cerep panel; conditions: Compound concentration 10.0 uM
[27] = molecular target: Neurotensin receptor type 1 (Homo sapiens) (UniProt P30989); assay: hNT1 Cerep panel; conditions: Compound concentration 10.0 uM
[28] = molecular target: Ephrin type-A receptor 8 (Homo sapiens) (UniProt P29322); assay: EPH receptor A8 Millipore kinase panel; conditions: Compound concentration 10.0 uM
[29] = molecular target: Mitogen-activated protein kinase 12 (Homo sapiens) (UniProt P53778); assay: mitogen-activated protein kinase 12 Millipore kinase panel; conditions: Compound concentration 10.0 uM
[30] = molecular target: Vascular endothelial growth factor receptor 3 (Homo sapiens) (UniProt P35916); assay: fms-related tyrosine kinase 4 Millipore kinase panel; conditions: Compound concentration 10.0 uM
[31] = molecular target: RAC-alpha serine/threonine-protein kinase (Homo sapiens) (UniProt P31749); assay: v-akt murine thymoma viral oncogene homolog 1 Millipore kinase panel; conditions: Compound concentration 10.0 uM
[32] = molecular target: Galanin receptor type 2 (Homo sapiens) (UniProt O43603); assay: hGAL2 Cerep panel; conditions: Compound concentration 10.0 uM
[33] = molecular target: Serine/threonine-protein kinase 24 (Homo sapiens) (UniProt Q9Y6E0); assay: serine/threonine kinase 24 Millipore kinase panel; conditions: Compound concentration 10.0 uM
[34] = molecular target: Tyrosine-protein kinase SYK (Homo sapiens) (UniProt P43405); assay: spleen tyrosine kinase Millipore kinase panel; conditions: Compound concentration 10.0 uM
[35] = molecular target: Cyclin-dependent kinase 2/cyclin E (Homo sapiens) (UniProt P24864+P24941+O96020); assay: cyclin-dependent kinase 2 /clyclinE Millipore kinase panel; assay type: protein-complex assay; conditions: Compound concentration 10.0 uM
Rattus norvegicus [36] = species on record: Rattus norvegicus; assay: rCL channel Cerep panel; conditions: Compound concentration 10.0 uM
[37] = molecular target: Ephrin type-B receptor 3 (Homo sapiens) (UniProt P54753); assay: EPH receptor B3 Millipore kinase panel; conditions: Compound concentration 10.0 uM
[38] = molecular target: Rhodopsin kinase GRK7 (Homo sapiens) (UniProt Q8WTQ7); assay: G protein-coupled receptor kinase 7 Millipore kinase panel; conditions: Compound concentration 10.0 uM
[39] = molecular target: Fibroblast growth factor receptor 1 (Homo sapiens) (UniProt P11362); assay: fibroblast growth factor receptor 1 Millipore kinase panel; conditions: Compound concentration 10.0 uM
[40] = molecular target: D(1A) dopamine receptor (Homo sapiens) (UniProt P21728); assay: hD1 Cerep panel; conditions: Compound concentration 10.0 uM
Rattus norvegicus [41] = species on record: Rattus norvegicus; assay: rSKCa channel Cerep panel; conditions: Compound concentration 10.0 uM
[42] = molecular target: 5'-AMP-activated protein kinase catalytic subunit alpha-2 (Homo sapiens) (UniProt P54646); assay: protein kinase, AMP-activated, alpha 2 catalytic subunit Millipore kinase panel; conditions: Compound concentration 10.0 uM
[43] = molecular target: Serine/threonine-protein kinase ULK2 (Homo sapiens) (UniProt Q8IYT8); assay: unc-51-like kinase 2 Millipore kinase panel; conditions: Compound concentration 10.0 uM
[44] = molecular target: Tyrosine-protein kinase ZAP-70 (Homo sapiens) (UniProt P43403); assay: zeta-chain associated protein kinase 70kDa Millipore kinase panel; conditions: Compound concentration 10.0 uM
[45] = molecular target: T1, Muscarinic acetylcholine receptor M1 (Homo sapiens) (UniProt P11229); assay: hM1 Cerep panel; conditions: Compound concentration 10.0 uM
T1 sequence (whole entry): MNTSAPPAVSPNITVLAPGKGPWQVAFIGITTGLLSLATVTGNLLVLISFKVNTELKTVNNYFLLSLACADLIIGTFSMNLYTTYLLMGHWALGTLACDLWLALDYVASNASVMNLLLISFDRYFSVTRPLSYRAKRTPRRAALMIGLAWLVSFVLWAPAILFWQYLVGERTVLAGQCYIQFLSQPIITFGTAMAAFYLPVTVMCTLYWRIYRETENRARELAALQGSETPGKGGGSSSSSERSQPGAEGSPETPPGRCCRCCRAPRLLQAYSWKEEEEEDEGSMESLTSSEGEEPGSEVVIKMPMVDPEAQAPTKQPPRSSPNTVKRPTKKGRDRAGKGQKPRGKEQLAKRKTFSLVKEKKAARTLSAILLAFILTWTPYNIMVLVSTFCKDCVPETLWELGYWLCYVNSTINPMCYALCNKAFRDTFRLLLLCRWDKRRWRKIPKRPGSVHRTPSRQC

Chain of Adenosine receptor A2a (Homo sapiens) (P29274 whole entry): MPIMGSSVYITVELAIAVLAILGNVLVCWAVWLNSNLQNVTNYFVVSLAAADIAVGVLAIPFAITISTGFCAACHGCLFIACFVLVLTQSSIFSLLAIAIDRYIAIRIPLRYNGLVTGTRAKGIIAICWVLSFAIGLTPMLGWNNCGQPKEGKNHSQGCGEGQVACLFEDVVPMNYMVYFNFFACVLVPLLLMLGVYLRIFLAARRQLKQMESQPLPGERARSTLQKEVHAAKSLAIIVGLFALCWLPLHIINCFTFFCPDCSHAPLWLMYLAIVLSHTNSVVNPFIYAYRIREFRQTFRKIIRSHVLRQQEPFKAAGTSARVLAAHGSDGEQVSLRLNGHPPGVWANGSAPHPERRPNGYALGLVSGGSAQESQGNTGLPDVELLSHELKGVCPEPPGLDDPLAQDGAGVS

Question: `COCCc1ccc(-c2c(C)nc3c(N4CCOCC4)ccnn23)cn1` [JNJ-42396302] was tested. Which effect [1] did it give?
Answer: 17.8%

Question: What about the Ki [2] of the same compound?
Answer: 46 µM

Question: And the effect [3]?
Answer: -2.55%

Question: And the inhibition [4]?
Answer: 9%

Question: What about the effect [5] of the same compound?
Answer: 13.6%

Question: And the inhibition [6]?
Answer: 9%

Question: What about the inhibition [7] of the same compound?
Answer: 1%

Question: And the effect [8]?
Answer: -0.55%

Question: And the inhibition [9]?
Answer: -2%

Question: What about the effect [10] of the same compound?
Answer: 3.95%

Question: And the inhibition [11]?
Answer: 1%

Question: What about the inhibition [12] of the same compound?
Answer: -4%

Question: What about the inhibition [13] of the same compound?
Answer: 3%

Question: And the inhibition [14]?
Answer: 5%

Question: And the inhibition [15]?
Answer: 0%

Question: What about the inhibition [16] of the same compound?
Answer: 7%

Question: And the inhibition [17]?
Answer: -1%

Question: And the inhibition [18]?
Answer: 7%

Question: And the effect [19]?
Answer: 13%

Question: And the inhibition [20]?
Answer: 3%

Question: What about the inhibition [21] of the same compound?
Answer: 5%

Question: And the inhibition [22]?
Answer: -3%

Question: And the inhibition [23]?
Answer: -9%

Question: And the inhibition [24]?
Answer: -2%

Question: And the inhibition [25]?
Answer: 2%

Question: What about the effect [26] of the same compound?
Answer: 6%

Question: And the effect [27]?
Answer: 12.3%

Question: What about the inhibition [28] of the same compound?
Answer: 0%

Question: What about the inhibition [29] of the same compound?
Answer: 2%

Question: And the inhibition [30]?
Answer: -4%

Question: What about the inhibition [31] of the same compound?
Answer: 35%

Question: What about the effect [32] of the same compound?
Answer: 6.7%

Question: And the inhibition [33]?
Answer: 9%

Question: And the inhibition [34]?
Answer: -7%

Question: And the inhibition [35]?
Answer: 1%

Question: What about the effect (Rattus norvegicus [36]) of the same compound?
Answer: -12.3%

Question: And the inhibition [37]?
Answer: 3%

Question: What about the inhibition [38] of the same compound?
Answer: 6%

Question: What about the inhibition [39] of the same compound?
Answer: 8%

Question: And the effect [40]?
Answer: 6.2%

Question: What about the effect (Rattus norvegicus [41]) of the same compound?
Answer: 7.4%

Question: And the inhibition [42]?
Answer: 2%

Question: And the inhibition [43]?
Answer: 6%

Question: What about the inhibition [44] of the same compound?
Answer: 4%

Question: What about the effect [45] of the same compound?
Answer: 2.2%
